The source of these data is patent US20240390383A1, “DIOXAZINES AND THEIR USE IN TREATMENT OF GBA-RELATED DISEASES” (ZEVRA DENMARK A/S, priority 2021, published 2024).

For this assay, the target named is T1, GCase (GBA) in human fibroblast cell line GM10915 harboring the L444P GBA mutation (Homo sapiens, UniProt P04062, L483P).
T1 construct: Human fibroblast cell line GM10915 harboring the L444P GBA mutation; host or cells: GM10915 human fibroblasts
T1 sequence (P04062 40-536 L483P): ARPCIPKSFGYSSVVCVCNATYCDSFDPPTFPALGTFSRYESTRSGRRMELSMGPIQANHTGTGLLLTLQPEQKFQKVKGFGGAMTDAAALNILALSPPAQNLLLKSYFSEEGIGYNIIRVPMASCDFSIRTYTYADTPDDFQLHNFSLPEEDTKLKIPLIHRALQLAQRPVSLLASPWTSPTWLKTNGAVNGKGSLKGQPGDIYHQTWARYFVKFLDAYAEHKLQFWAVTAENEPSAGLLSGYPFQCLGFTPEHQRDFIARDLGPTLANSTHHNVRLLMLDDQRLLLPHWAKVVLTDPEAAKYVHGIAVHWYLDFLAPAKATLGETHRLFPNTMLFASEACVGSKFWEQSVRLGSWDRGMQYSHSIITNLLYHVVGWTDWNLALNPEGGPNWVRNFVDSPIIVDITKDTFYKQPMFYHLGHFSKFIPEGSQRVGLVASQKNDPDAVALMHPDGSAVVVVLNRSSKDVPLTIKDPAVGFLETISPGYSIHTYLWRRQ
The assay can be described thus: GCase activity assay (4-MUG substrate, normalised to crystal violet staining) in L444P GBA fibroblasts. It is filed as cell-based. As to conditions: 5 days exposure; for GBA EC1.5: concentration giving 150% GCase activity (1.5-fold induction), 8-point dose range. As to the method:
Human fibroblast cell line GM10915 harboring the L444P GBA mutation was obtained from Coriell Biorepositories.
All chemicals (Glacial acetic acid, Glycine, 4-Methylumbelliferyl b-D-glucopyranoside (4-MUG), Sodium acetate trihydrate, Sodium hydroxide, Crystal violet, SDS, Ammonium hydroxide) were obtained from Sigma-Aldrich (Denmark) Compounds tested for GCase activity were dissolved in H2O or DMSO.
The GM10915 cell line was cultured under standard cell culture conditions (37° C. and 5% CO2) in complete DMEM medium supplemented with nonessential amino acids (NEAA), 1% Pen-Strep and 12% FCS. Cells were seeded at a density of 10^4 cells/well in 100 μL complete medium in one black 96-well plate for glucosylceramidase (GCase) activity measurement and in one clear 96-well plate for crystal violet staining to correct for cell density. Crystal violet staining is performed to obtain quantitative information about the relative density of cells adhering to multi-wells plates.
The assay was adapted from Sawkar et al (2002) and briefly described in the following. The day after seeding of cells, the medium was replaced with fresh medium containing the compounds to be tested. Compounds were tested in duplicate and in an 8-point diluted dose range to obtain a dose response. Cells were exposed with compounds for five days. Fresh compound was added every 2-3 days. PBS was included to define the basal level of GCase activity.
Cells were washed three times with 200 μL PBS per well and 50 μL of 2.5 mM 4-MUG buffer (4-MUG dissolved in 0.2 M acetate buffer pH 4.0) was added and the cells were incubated at 37° C., 5% CO2 for 23 hours. The reaction was stopped by adding 150 μL 0.2 M glycine buffer (pH 10.8). Fluorescence was measured with a Varioskan® Flash reader (Thermo Scientific) at an excitation/emission setting of 365/445 nm.
Cells were treated with compounds in a parallel setup identical to the setup to test for GCase activity. At the end of compound treatment, cells were washed once with 200 μL PBS per well and 50 μL 0.1% w/v crystal violet (in H2O) was added. Following 10 min. of incubation, the crystal violet solution was removed, and the cells were washed three times with 200 μL PBS and 100 μL 1% SDS was added to solubilize the stain. The plate was agitated on an orbital shaker for 10-30 min. Absorbance (A) is measured at […] using a Varioskan® Flash reader (Thermo Scientific).
The fluorescence signal (F) derived from the GCase measurement is normalized to the absorbance signal (A) derived from the crystal violet staining. The percent GCase activity resulting from compound treatment is calculated relative to the basal activity obtained from untreated cells.
Maximal effect of compounds (Emax) is determined from the dose response effects as the maximum “Percent GCase activity” achieved in the dose range tested.

Where [1] appears, read: maximum percent GCase activity relative to untreated cells in the dose range tested.

A word on the Emax: it is the greatest response seen or fitted, relative to the assay's reference.

The structures appear in SMILES notation. Several values for one entry are separate records, joined by “and”; a condition that tells them apart may be missing. Identical values can stand only once.

On to `CC1(C)CNCC1C1=NOCC(CN2CCCCC2)O1` (racemic) [compound 688, rac-3-(4,4-dimethylpyrrolidin-3-yl)-5-(piperidin-1-ylmethyl)-5,6-dihydro-1,4,2-dioxazine], for which the “GBA EC1.5” value is 34 µM. Also, under setting [1], the Emax came out at 152%.
Consider `COC1CNCCC1C1=NOCC(CN2CCCCC2)O1` (racemic) [compound 690, rac-3-(3-methoxypiperidin-4-yl)-5-(piperidin-1-ylmethyl)-5,6-dihydro-1,4,2-dioxazine], for which the “GBA EC1.5” value was 25 µM. Under setting [1], this compound came in with an Emax of 205%.
Taken in the same sequence, the figures for `CC(N)C(=O)N1CCC(C2=NOCC(CN3CCCCC3)O2)C1` (racemic) [compound 691, rac-2-amino-1-(3-(5-(piperidin-1-ylmethyl)-5,6-dihydro-1,4,2-dioxazin-3-yl)pyrrolidin-1-yl)propan-1-one] were 25 µM and 252%.
For `NCC(=O)N1CCC(C2=NOCC(CN3CCCCC3)O2)C1` (racemic) [compound 699, rac-2-amino-1-(3-(5-(piperidin-1-ylmethyl)-5,6-dihydro-1,4,2-dioxazin-3-yl)pyrrolidin-1-yl)ethan-1-one] the same measures were 38 µM and 203%.
With `COC1CCN(C)CC1C1=NOCC(CN2CCCCC2)O1` (racemic) [compound 700, rac-3-(4-methoxy-1-methylpiperidin-3-yl)-5-(piperidin-1-ylmethyl)-5,6-dihydro-1,4,2-dioxazine], the “GBA EC1.5” value stood at 15 µM. Under setting [1], the Emax was 270%.
For `COCCC1(C2=NOCC(CN3CCCCC3)O2)CCN(C)C1` (racemic) [compound 701, rac-3-(3-(2-methoxyethyl)-1-methylpyrrolidin-3-yl)-5-(piperidin-1-ylmethyl)-5,6-dihydro-1,4,2-dioxazine] the same measures were 21 µM and 225%.
For `CC1(C)CC(C2=NOCC(CN3CCCCC3)O2)CCN1` (racemic) [compound 705, rac-3-(2,2-dimethyl-4-piperidyl)-5-(1-piperidylmethyl)-5,6-dihydro-1,4,2-dioxazine] the same measures were 5 µM and 180%.
Taken in the same sequence, the figures for `CC(C)C1ON=C(C2CCNCC2)OC1CN1CCCCC1` (racemic) [compound 706, rac-6-isopropyl-5-(piperidin-1-ylmethyl)-3-(piperidin-4-yl)-5,6-dihydro-1,4,2-dioxazine] were 6 µM and 180%.
Consider `CC(C)C1ON=C(C2CCN(C)C2)OC1CN1CCCCC1` (racemic) [compound 707, rac-6-isopropyl-3-(1-methylpyrrolidin-3-yl)-5-(piperidin-1-ylmethyl)-5,6-dihydro-1,4,2-dioxazine], for which the “GBA EC1.5” value is 4 µM and 2 µM. Under setting [1], the Emax came to 249% and the “GBA Emax” value stood at 230%.
Take `CC(C)N1CCCC(C2=NOCC(CN3CCCCC3)O2)C1` (racemic) [compound 709, rac-3-(1-isopropylpiperidin-3-yl)-5-(piperidin-1-ylmethyl)-5,6-dihydro-1,4,2-dioxazine]: the “GBA EC1.5” value turned out to be 22 µM. Moreover, the maximal effect (Emax) under setting [1] amounted to 178%.
Taken in the same sequence, the figures for `CN(C)C(=O)CN1CCCC(C2=NOCC(CN3CCCCC3)O2)C1` (racemic) [compound 710, rac-N,N-dimethyl-2-(3-(5-(piperidin-1-ylmethyl)-5,6-dihydro-1,4,2-dioxazin-3-yl)piperidin-1-yl)acetamide] were 28 µM and 234%.
For `NC(=O)CN1CCCC(C2=NOCC(CN3CCCCC3)O2)C1` (racemic) [compound 711, rac-2-(3-(5-(piperidin-1-ylmethyl)-5,6-dihydro-1,4,2-dioxazin-3-yl)piperidin-1-yl)acetamide], the “GBA EC1.5” value stood at 38 µM. In addition, the Emax under setting [1] was 198%.
For `CC(C)C1ON=C(C2CCNC2)OC1CN(C)C` (racemic) [compound 713, rac-1-(6-isopropyl-3-(pyrrolidin-3-yl)-5,6-dihydro-1,4,2-dioxazin-5-yl)-N,N-dimethylmethanamine] the same measures were 28 µM and 212%.
As to `COC1CN(C(C)C)CCC1C1=NOCC(CN2CCCCC2)O1` (racemic) [compound 714, rac-3-(1-isopropyl-3-methoxypiperidin-4-yl)-5-(piperidin-1-ylmethyl)-5,6-dihydro-1,4,2-dioxazine], the “GBA EC1.5” value turned out to be 16 µM. This compound registered an Emax under setting [1] of 213%.
Taken in the same sequence, the figures for `CC(C)N1CCC(C2=NOCC(CN3CCCCC3)O2)CC1` (racemic) [compound 719, rac-3-(1-isopropylpiperidin-4-yl)-5-(piperidin-1-ylmethyl)-5,6-dihydro-1,4,2-dioxazine] were 10 µM and 242%.
For `COC1CN(C)CCC1C1=NOCC(CN2CCCCC2)O1` (racemic) [compound 720, rac-3-(3-methoxy-1-methylpiperidin-4-yl)-5-(piperidin-1-ylmethyl)-5,6-dihydro-1,4,2-dioxazine] the same measures were 11 µM and 346%.
For `CNC(=O)CN1CCCC(C2=NOCC(CN3CCCCC3)O2)C1` (racemic) [compound 721, rac-N-methyl-2-(3-(5-(piperidin-1-ylmethyl)-5,6-dihydro-1,4,2-dioxazin-3-yl)piperidin-1-yl)acetamide] the same measures were 33 µM and 175%.
For `OCC1(C2=NOCC(CN3CCCCC3)O2)CCNCC1` (racemic) [compound 722, rac-(4-(5-(piperidin-1-ylmethyl)-5,6-dihydro-1,4,2-dioxazin-3-yl)piperidin-4-yl)methanol], the “GBA EC1.5” value was 26 µM. This compound had an Emax under setting [1] of 153%.
Taken in the same sequence, the figures for `NCC(=O)N1CCCC(C2=NOCC(CN3CCCCC3)O2)C1` (racemic) [compound 725, rac-2-amino-1-(3-(5-(piperidin-1-ylmethyl)-5,6-dihydro-1,4,2-dioxazin-3-yl)piperidin-1-yl)ethan-1-one] were 36 µM and 168%.
Taken in the same sequence, the figures for `COCCC1(C2=NOCC(CN3CCCCC3)O2)CCNCC1` (racemic) [compound 726, rac-3-(4-(2-methoxyethyl)piperidin-4-yl)-5-(piperidin-1-ylmethyl)-5,6-dihydro-1,4,2-dioxazine] were 8 µM and 269%.
For `CC(N)C(=O)N1CCC(C2=NOCC(CN3CCCCC3)O2)CC1` (racemic) [compound 748, rac-2-amino-1-(4-(5-(piperidin-1-ylmethyl)-5,6-dihydro-1,4,2-dioxazin-3-yl)piperidin-1-yl)propan-1-one] the same measures were 16 µM and 283%.
For `CNC1CNCC(C2=NOCC(CN3CCCCC3)O2)C1` (racemic) [compound 756, rac-N-methyl-5-(5-(piperidin-1-ylmethyl)-5,6-dihydro-1,4,2-dioxazin-3-yl)piperidin-3-amine], the “GBA EC1.5” value was found to be 39 µM. Under setting [1], this compound came in with a maximum response (Emax) of 121%.
For `CN(C)[C@H]1CNC[C@H]1C1=NOCC(CN2CCCCC2)O1` (mixture of isomers) [compound 766, rac-rel-cis-(3R,4R)—N,N-dimethyl-4-(5-(piperidin-1-ylmethyl)-5,6-dihydro-1,4,2-dioxazin-3-yl)pyrrolidin-3-amine] the same measures were 38 µM and 136%.
